Laboratory results from patent US20240293387A1, “Methods of Treating Fabry Disease in Pediatric Patients” (Amicus Therapeutics, Inc., priority 2021, published 2024).
Read-outs that look alike come from different tables or passages of the source.

Assays:
[1] = tested on: pediatric subjects with Fabry disease and amenable GLA variants; experiment: AT1001-020 Stage 1 safety in pediatric subjects (interim analysis)
Description: All safety analyses were performed using the safety population.
During Stage 1, urinalysis (albumin, protein, specific gravity, pH, and microscopy) was the only laboratory parameter collected at Month 1 and therefore, the only laboratory parameter assessed for the Interim Analysis.

[2] = AT1001-020 Stage 1 pharmacokinetics (sparse plasma sampling, LC-MS/MS, popPK); type: in vivo, human
Description: Migalastat levels can be measured via methods known in the art. For example, if measuring migalastat from tissue samples, tissue aliquots may be homogenized (7 μL water per 1 mg tissue) using a homogenizer (e.g., FastPrep-24 from MP Biomedical, Irvine, CA). Microcentrifuge tubes containing 100 μl of the tissue homogenate or 50 μl of plasma may then be spiked with 500 ng/ml 13C d2-AT1001 HCl internal standard (manufactured by MDS Pharma Services). A 600 μl volume of 5 mM HCl in 95/5 MeOH:H2O can then be added and the tubes vortexed for 2 minutes, followed by centrifugation at 21000×g for 10 minutes at room temperature. […] After several wash steps and elution into a clean, 96-well plate, the extracts may be dried down under N2 and reconstituted with mobile phase A. Migalastat levels can then be determined by liquid chromatography-tandem mass spectroscopy (LC-MS/MS) (e.g., LC: Shimadzu; MS/MS: ABSciex API 5500 MS/MS). […] The following precursor ion->product ion transitions may be monitored: mass/charge (m/z) 164.1→m/z 80.1 for migalastat and m/z 167.1→m/z 83.1 for the internal standard. […] The ratio of the area under the curve for migalastat to that of the internal standard is then determined and final concentrations of migalastat in each sample calculated using the linear least squares fit equation applied to the calibration curve. […]
Plasma samples were analyzed using the LC-MS/MS method. […]

[3] = tested on: patients with Fabry disease with amenable mutations; type: in vivo, human; conditions: 150 mg QOD
Description: These analyses included data from 4 Phase 2 and 4 Phase 3 clinical trials with the data cutoff of Feb.
FAB-CL-202 (NCT00283959), FAB-CL-203 (NCT00283933), and FAB-CL-204 (NCT00304512) were phase 2, open-label, noncomparative studies that evaluated the safety, tolerability, pharmacokinetics (PK), and pharmacodynamics (PD) of migalastat (dose range: 50-250 mg) in patients with Fabry disease.
FAB-CL-205 (NCT0052607) was a phase 2, long-term, open-label extension (OLE) study for patients completing phase 2 clinical trials, including FAB-CL-202, FAB-CL-203, and FAB-CL-204. The study included a period with migalastat 150 mg every other day (QOD), then a dose-escalation period, followed by 150 mg QOD.
FACETS (AT1001-011, NCT00925301) was a phase 3, placebo-controlled study designed to evaluate the efficacy, safety, and PD of 6 months of migalastat 150 mg QOD versus placebo, followed by an 18-month open label extension (OLE) of migalastat in ERT-naive patients with Fabry disease and migalastat-amenable GLA variants.
AT1001-041 (NCT01458119) was a long-term OLE study evaluating the long-term safety and efficacy of migalastat in patients completing FAB-CL-205, AT1001-011, or AT1001-012
AT1001-042 (NCT02194985) is an ongoing, long-term OLE study evaluating the long-term safety and efficacy of migalastat in patients who participated in AT1001-012 or AT1001-041.
The analysis evaluates CBV events reported as treatment-emergent adverse events (TEAEs) during migalastat 150 mg QOD treatment in patients with amenable mutations in phase 2 and phase 3 clinical trials.
CBV events were identified by searching medical history and TEAE listings with stroke-related terms, including brain stem ischemia, cerebral infarction, cerebral hemorrhage, cerebral ischemia, cerebrovascular accident, embolic stroke, and TIA.
Only amenable patients who received at least 1 dose of migalastat 150 mg QOD were included in this analysis.

[4] = Safety Population (N = 9), Stage 1
[5] = FAB-CL 202, 203, 204, and 205 (n = 17)

Structure (SMILES): OC[C@H]1NC[C@H](O)[C@@H](O)[C@H]1O [migalastat, (2R,3S,4R,5S)-2-(hydroxymethyl) piperdine-3,4,5-triol]
- Changes in mean values from baseline for urinalysis parameters ([1]; Month 1): no clinically meaningful changes
- Subjects with urine pH from normal at baseline to high at Month 1 ([1]; Safety Population (N = 9)): Three
- Number of subjects discontinued due to TEAEs [1, 4]: 0 n (%)
- Number of subjects with AEs leading to death [1, 4]: 0 n (%)
- Number of subjects with TEAEs [1, 4]: 5 (55.6) n (%)
- Number of subjects with related TEAEs [1, 4]: 1 (11.1) n (%)
- Number of subjects with treatment-emergent SAEs [1, 4]: 0 n (%)
- Number of TEAEs ([1]; Safety Population (N = 9), Stage 1, 123 mg capsule QOD): 6 n
- Drug eruption, Number of Events ([1]; Safety Population, Stage 1): 1 (16.7) n (%)
- Drug eruption, Number of Subjects ([1]; Safety Population, Stage 1): 1 (11.1) n (%)
- Headache, Number of Events ([1]; Safety Population, Stage 1): 1 (16.7) n (%)
- Headache, Number of Subjects ([1]; Safety Population, Stage 1): 1 (11.1) n (%)
- Infections and infestations, Number of Events ([1]; Safety Population, Stage 1): 4 (66.7) n (%)
- Infections and infestations, Number of Subjects ([1]; Safety Population, Stage 1): 4 (44.4) n (%)
- Nervous system disorders, Number of Events ([1]; Safety Population, Stage 1): 1 (16.7) n (%)
- Nervous system disorders, Number of Subjects ([1]; Safety Population, Stage 1): 1 (11.1) n (%)
- Pharyngitis, Number of Events ([1]; Safety Population, Stage 1): 1 (16.7) n (%)
- Pharyngitis, Number of Subjects ([1]; Safety Population, Stage 1): 1 (11.1) n (%)
- Skin and subcutaneous tissue disorders, Number of Events ([1]; Safety Population, Stage 1): 1 (16.7) n (%)
- Skin and subcutaneous tissue disorders, Number of Subjects ([1]; Safety Population, Stage 1): 1 (11.1) n (%)
- Upper respiratory tract infection, Number of Events ([1]; Safety Population, Stage 1): 3 (50.0) n (%)
- Upper respiratory tract infection, Number of Subjects ([1]; Safety Population, Stage 1): 3 (33.3) n (%)
- Potentially clinically significant abnormalities in urinalysis parameters ([1]; Stage 1): no potentially clinically significant abnormalities
- New safety findings ([1]; Stage 1, 123 mg, pediatric patients aged ≥12 to 16 years): No new safety findings
- Cmax levels observed in the pediatric patients versus adults in study AT1001-011 ([2]; 123 mg capsule QOD): in line with the Cmax levels observed in adults patients
- Exposure in adults and adolescents weighing >45 kg (popPK) ([2]; 123 mg capsule q.o.d., adolescent patients (n=9)): comparable
- Any CBV event during treatment, unique patients ([3]; ATTRACT (n = 49)): 2 (4%)
- Brain stem ischemia during treatment, patients ([3]; ATTRACT (n = 49)): 0
- Cerebral hemorrhage during treatment, patients ([3]; ATTRACT (n = 49)): 0
- Cerebral infarction during treatment, patients ([3]; ATTRACT (n = 49)): 0
- Cerebral ischemia during treatment, patients ([3]; ATTRACT (n = 49)): 0
- Cerebrovascular accident during treatment, patients ([3]; ATTRACT (n = 49)): 0
- Embolic stroke during treatment, patients ([3]; ATTRACT (n = 49)): 0
- Transient ischemic attack during treatment, patients ([3]; ATTRACT (n = 49)): 2 (4%)
- Any CBV event during treatment, unique patients [3, 5]: 3 (18%)
- Brain stem ischemia during treatment, patients [3, 5]: 0
- Cerebral hemorrhage during treatment, patients [3, 5]: 0
- Cerebral infarction during treatment, patients [3, 5]: 1 (6%)
- Cerebral ischemia during treatment, patients [3, 5]: 1 (6%)
- Cerebrovascular accident during treatment, patients [3, 5]: 1 (6%)
- Embolic stroke during treatment, patients [3, 5]: 0
- Transient ischemic attack during treatment, patients [3, 5]: 1 (6%)
